Key:
[1] = system: mice; assay: Observation of side effects (gait, mobility, prone behavior) during administration in the elevated plus maze experiment; type: in vivo; design: key to Gait, Level / mobility, Level / prone behavior, Level: “+” indicates severity; ++: “+” indicates severity; +++: three “+” are the most severe, with time to resume normal action >60 minutes; conditions: for side effects compared to the positive drug: 3 mg/kg, mice; for Gait, Number / mobility, Number / prone behavior, Number: 10 mice per group
Method: Since the drugs which are acting on GABA (A) receptor can produce behavioral anesthesia (side effects), side effects of mice during administration were observed during the course of the elevated plus maze experiment. […] “+” indicates severity, three “+” are the most severe, with time to resume normal action >60 minutes.

[2] = system: mice; assay: Light-dark shuttle box anti-anxiety test; type: in vivo; conditions: 5 consecutive days, 30 min after last administration, male mice
Text: 57.3.1 light-dark shuttle box: The light-dark shuttle box is a standard and well characterized assay for anxiolytic effects of the exemplary compounds. Mice naturally avoid the light of the box because light makes mice evasive and stressful, but the exploration habit of mice also prompts mice to try to explore a bright box. Increased time on the light of the box by the exemplary compounds reflects an anxiolytic effect on mice. The experimental mice were randomly divided into 5 groups based on weight, including a negative control group, two different dosage groups (1 mg/kg and 3 mg/kg) of the tested compounds (KH004 or KH022), and every group had 10 male mice. Mice were administered with corresponding dosage for tested intervention for 5 consecutive days in advance, and conducting anxiolytic experiments after 30 min of the last administration. The retention time in the light box was selected as the main index for evaluating the anti-anxiety effect of KH004 and KH022.

[3] = system: mice; assay: Elevated Plus Maze (EPM) testing; type: in vivo; conditions: 5 consecutive days, 30 min after last administration, male mice
Text: 57.3.2 Elevated Plus Maze (EPM) testing: EPM for exploratory behavior was used to assess general motor and anxiety-like behavior that was consisting of two open arms and two closed arms extending from a common central platform, thus forming anxiety-like symptoms. The anxiolytic compound would relieve the anxiety conflict status of animals in the test system. The experimental mice were randomly divided into 4 groups based on weight, including a negative control group, two different dosage groups (1 mg/kg and 3 mg/kg) of test compounds (KH004 or KH022), and every group had 10 male mice. Mice were administered with corresponding dosage for test intervention for 5 consecutive days in advance, and conducting anxiolytic experiments after 30 min of the last administration. The percentage of the retention time (latency) of mice open arms were used as the main index to evaluate the anxiolytic effect of KH004 and KH022, the results are shown in Table 5.

[4] = Pharmacokinetics in brain and plasma after dosing; type: in vivo, CD-1 mice
Method: KH022 in the present invention and the control described in example 56
The experimental animals are CD-1 mice.
Preparation of test compounds with 30% SBECD in water for intragastric administration. On the first day of the experiment, the animals in the first group are […] with the solution of KH022 or the control with the dosage of 5 mL/kg; before the administration, the animals were weighed, and the administration volume was calculated according to the body weight. Whole blood samples (about 0.03 ml per group) were collected at a specified time by saphenous vein puncture (or other suitable collection locations). Blood samples were immediately processed for plasma by centrifugation at approximately 4° C., 3,200 g for 10 min, quickly placed in dry ice, and kept below −20° C. until LC/MS/MS analysis. At each time point, animals were euthanized using CO2 and then brain tissue was collected, rinsed and dried with physiological saline, and homogenized with 4 times the brain weight (g) volume of 15 mM PBS (pH7.4):MeOH=2:1. After homogenization, samples were transferred to labeled centrifuge tubes and quickly placed in dry ice, stored at or below −20° C. for LC-MS/MS analysis.
The concentrations of the test compound in dose formulation samples was determined by the LC/UV, and the calibration curve contains at least 6 calibration standards, R^2≥0.999. The concentrations of the test compound in biological matrix was determined by the LC/MS/MS method. The retention time of test compounds or internal standards, chromatogram acquisition and chromatogram integration were processed by software Analyst (Applied Biosystems), and data statistics were processed by software Watson LIMS (Thermo Fisher Scientific) or Analyst (Applied Biosystems). The unit of the analyte concentration in the sample is ng/ml, with 3 significant digits reserved, and all values expressed in percentages (such as % deviation and % coefficient of variation, etc.) were kept to one decimal place. […]

Row | SMILES | side effects compared to the positive drug [1] | Gait, Number ([1]; 3mg/kg, the first day) | mobility, Number ([1]; 3mg/kg, the first day) | prone behavior, Number ([1]; 3mg/kg, the first day) | Gait, Number ([1]; 3mg/kg, the forth day) | mobility, Number ([1]; 3mg/kg, the forth day) | prone behavior, Number ([1]; 3mg/kg, the forth day) | Gait, Number ([1]; 3mg/kg, the second day) | mobility, Number ([1]; 3mg/kg, the second day) | prone behavior, Number ([1]; 3mg/kg, the second day) | Gait, Level ([1]; 3mg/kg, the third day) | Gait, Number ([1]; 3mg/kg, the third day) | mobility, Number ([1]; 3mg/kg, the third day) | prone behavior, Number ([1]; 3mg/kg, the third day) | The retention time in the light box ([2]; 1.0 mg/kg) [%] | The retention time in the light box ([2]; 3.0 mg/kg) [%] | The retention time of mice open arms ([3]; 1 mg/kg) [%] | The retention time of mice open arms ([3]; 3 mg/kg) [%] | Gait, Level ([1]; 3mg/kg, the first day) | mobility, Level ([1]; 3mg/kg, the first day) | also measured
1 | C[C@]12CC[C@@H](O)C[C@@H]1CC[C@@H]1[C@@H]2CC[C@]2(C)[C@@H](C(=O)Cn3ncnn3)CCC[C@@H]12 [KH004] | less side effects | 0 | 0 | 0 | 0 | 0 | 0 | 0 | 0 | 0 | + | 1 | 0 | 0 | 50.30 ± 6.89 | 53.91 ± 9.37 | 27.21 ± 11.15 | 36.44 ± 13.28 |  |  | 
2 | C[C@@]1(O)CC[C@@]2(C)[C@@H](CC[C@@H]3[C@@H]2CC[C@]2(C)[C@@H](C(=O)Cn4ncnn4)CCC[C@@H]32)C1 [KH022] | less side effects | 3 | 1 | 0 | 3 | 1 | 0 | 2 | 0 | 0 | + | 1 | 0 | 0 | 50.00 ± 4.59 | 56.66 ± 7.96 | 31.40 ± 16.41 | 39.46 ± 11.82 | + | ++ | content in the mouse brain relative to the control ([4]; 2h, same dosage): 2.5 times; clearance in the mouse brain compared with the control ([4]; same dosage): cleared more slowly; Gait, Level ([1]; 3mg/kg, the forth day): +; mobility, Level ([1]; 3mg/kg, the forth day): +; Gait, Level ([1]; 3mg/kg, the second day): +
3 | C[C@@]1(O)CC[C@H]2[C@H](CC[C@@H]3[C@@H]2CC[C@]2(C)[C@@H](C(=O)Cn4cc(C#N)cn4)CC[C@@H]32)C1 [The control, reference compound] |  | 7 | 3 | 2 | 9 | 5 | 0 | 6 | 0 | 0 | + | 8 | 4 | 0 |  |  |  |  | ++ | +++ (three “+” are the most severe, with time to resume normal action >60 minutes) | detection in the brain ([4]; mouse brain, 8h): no detection; prone behavior, Level ([1]; 3mg/kg, the first day): +; Gait, Level ([1]; 3mg/kg, the forth day): +; mobility, Level ([1]; 3mg/kg, the forth day): +; Gait, Level ([1]; 3mg/kg, the second day): ++; mobility, Level ([1]; 3mg/kg, the third day): ++

Source: US12415830B2, “Steroid compound, and use thereof and preparation method therefor” (Chengdu Kanghong Pharmaceutical Co Ltd, priority 2019, dated 2025)
